Assay results taken from patent publication US20130053243A1, “PLANTS HAVING INCREASED TOLERANCE TO HERBICIDES” (BASF SE, priority 2010, published 2013).

Experiments:
[1] = molecular target: T1, Arabidopsis HPPD variant P336A E363Q (Arabidopsis thaliana, UniProt P93836, E363Q/P336A); assay: HPPD activity assay, mutant enzyme; assay type: biochemical
T1 construct: His6 (N); made in house; host or cells: E. coli BL21 (DE3)
Procedure: (§1) HPPD produces homogentisic acid and CO2 from 4-hydroxyphenylpyruvate (4-HPP) and O2. The activity assay for HPPD is based on the analysis of homogentisic acid by reversed phase HPLC.
(§2) The assay mixture can contain 150 mM potassium phosphate buffer pH 7.0, 50 mM L-ascorbic acid, 1 μM FeSO4 and 7 μg of purified enzyme in a total volume of 1 ml.
(§3) Inhibitors are dissolved in DMSO (dimethylsulfoxide) to a concentration of 20 mM or 0.5 mM, respectively. From this stock solution serial five-fold dilutions are prepared in DMSO, which are used in the assay. The respective inhibitor solution accounts for 1% of the assay volume. Thus, final inhibitor concentrations range from 200 μM to 2.5 nM or from 5 μM to 63 pM, respectively.
(§4) After a preincubation of 30 min the reaction is started by adding 4-HPP to a final concentration of 0.1 mM. The reaction is allowed to proceed for 120 min at room temperature. The reaction is stopped by addition of 100 μl of 4.5 M phosphoric acid.
(§5) The sample is extracted on an Oasis® HLB cartridge 3 cc/60 mg (Waters) that was preequilibrated with 63 mM phosphoric acid. L-ascorbic acid is washed out with 3 ml of 63 mM phosphoric acid. Homogentisate is eluted with 1 ml of a 1:1 mixture of 63 mM phosphoric acid and methanol (w/w).
(§6) 10 μl of the eluate is analyzed by reversed phase HPLC on a Symmetry® C18 column (particle size 3.5 μm, dimensions 4.6×100 mm; Waters) using 5 mM H3PO4/15% ethanol (w/w) as an eluent.
(§7) Homogentisic acid is detected electrochemically and quantified by measuring peak areas (Empower software; Waters).
(§8) Activities are normalized by setting the uninhibited enzyme activity to 100%. IC50 values are calculated using non-linear regression.
(§9) The assay mixture can contain 150 mM potassium phosphate buffer pH 7.0, 50 mM L-ascorbic acid, 100 μM Catalase (Sigma-Aldrich), 1 μM FeSO4 and 0.2 units of purified HPPD enzyme in a total volume of 505 μl. 1 unit is defined as the amount of enzyme that is required to produce 1 nmol of HGA per minute at 20° C.
(§10) After a preincubation of 30 min the reaction is started by adding 4-HPP to a final concentration of 0.05 mM. The reaction is allowed to proceed for 45 min at room temperature. The reaction is stopped by the addition of 50 μl of 4.5 M phosphoric acid. The sample is filtered using a […] pore size PVDF filtration device.
(§11) 5 μl of the cleared sample is analyzed on an Atlantis T3 column (particle size 3 μm, dimensions 3×50 mm; Waters) by isocratic elution using 90% 10 mM NaH2PO4 pH 2.2, 10% methanol (v/v).
(§12) HGA is detected electrochemically at 750 mV (mode: DC; polarity: positive) and quantified by integrating peak areas (Empower software; Waters).
(§13) Inhibitors are dissolved in DMSO (dimethylsulfoxide) to a concentration of 0.5 mM. From this stock solution serial five-fold dilutions are prepared in DMSO, which are used in the assay. The respective inhibitor solution accounts for 1% of the assay volume. Thus, final inhibitor concentrations range from 5 μM to 320 pM, respectively. Activities are normalized by setting the uninhibited enzyme activity to 100%. IC50 values are calculated using non-linear regression.
(§14) Purified, mutant HPPD enzymes are obtained by the methods described above. Dose response and kinetic measurements are carried out using the described HPPD activity assay. Apparent michaelis constants (Km) and maximal reaction velocities (Vmax) are calculated by non-linear regression with the software GraphPad Prism 5 (GraphPad Software, La Jolla, USA) using a substrate inhibition model. Apparent kcat values are calculated from Vmax assuming 100% purity of the enzyme preparation. Weighted means (by standard error) of Km and IC50 values are calculated from at least three independent experiments. The Cheng-Prusoff equation for competitive inhibition (Cheng, Y. C.; Prusoff, W. H. Biochem Pharmacol 1973, 22, 3099-3108) is used to calculate dissociation constants (Ki). Examples of the data obtained are depicted in Table 13.

[2] = molecular target: T2, Arabidopsis HPPD variant M335Q (Arabidopsis thaliana, UniProt P93836, M335Q); assay: HPPD activity assay, mutant enzyme; assay type: biochemical
T2 construct: His6 (N); made in house; host or cells: E. coli BL21 (DE3)
Procedure: as §1, §2, §3, §4, §5, §6, §7, §8, §9, §10, §11, §12, §13, §14

[3] = molecular target: T3, Arabidopsis HPPD variant L385V (Arabidopsis thaliana, UniProt P93836, L385V); assay: HPPD activity assay, mutant enzyme; assay type: biochemical
T3 construct: His6 (N); made in house; host or cells: E. coli BL21 (DE3)
Procedure: as §1, §2, §3, §4, §5, §6, §7, §8, §9, §10, §11, §12, §13, §14

[4] = molecular target: T4, Arabidopsis HPPD variant M335N (Arabidopsis thaliana, UniProt P93836, M335N); assay: HPPD activity assay, mutant enzyme; assay type: biochemical
T4 construct: His6 (N); made in house; host or cells: E. coli BL21 (DE3)
Procedure: as §1, §2, §3, §4, §5, §6, §7, §8, §9, §10, §11, §12, §13, §14

[5] = molecular target: T5, Arabidopsis HPPD variant I393L (Arabidopsis thaliana, UniProt P93836, I393L); assay: HPPD activity assay, mutant enzyme; assay type: biochemical
T5 construct: His6 (N); made in house; host or cells: E. coli BL21 (DE3)
Procedure: as §1, §2, §3, §4, §5, §6, §7, §8, §9, §10, §11, §12, §13, §14

C. reinhardtii (CC-503) = assay: C. reinhardtii growth inhibition by HPPD inhibiting herbicides; assay type: cell-based, Chlamydomonas reinhardtii
Source text: Bleaching herbicides with a mode of action in plastoquinone or tocopherol biosynthesis can inhibit algae growth (Tables 14 and 15). These effects can be partly reversed by intermediates of homogentisic acid biosynthesis (Table 14). To generate mutations conferring “coumarone-derivative herbicide” resistance in HPPD or HST genes, chemical or UV mutagenesis can be used. Especially unicellular organisms like Chlamydomonas reinhardtii or Scenedesmus obliquus are useful for identifying dominant mutations in herbicide resistance.
Algae cells of Chlamydomonas reinhardtii strains CC-503 and CC-1691 (Duke University, Durham, USA) are propagated in TAP medium (Gorman and Levine (1965) PNAS 54: 1665-1669) by constant shaking at 100 rpm, 22° C. and 30 μmol Phot*m^−2*[…] light illumination. Scenedesmus obliquus (University of Gottingen, Germany) are propagated in algae medium as described (Boger and Sandmann, (1993) In: Target assays for modern herbicides and related phytotoxic compounds, Lewis Publishers) under same culturing conditions as mentioned for Chlamydomonas. Compound screening is performed at 450 μmol Phot*m^−2*[…] illumination.

T3 sequence (P93836 whole entry L385V): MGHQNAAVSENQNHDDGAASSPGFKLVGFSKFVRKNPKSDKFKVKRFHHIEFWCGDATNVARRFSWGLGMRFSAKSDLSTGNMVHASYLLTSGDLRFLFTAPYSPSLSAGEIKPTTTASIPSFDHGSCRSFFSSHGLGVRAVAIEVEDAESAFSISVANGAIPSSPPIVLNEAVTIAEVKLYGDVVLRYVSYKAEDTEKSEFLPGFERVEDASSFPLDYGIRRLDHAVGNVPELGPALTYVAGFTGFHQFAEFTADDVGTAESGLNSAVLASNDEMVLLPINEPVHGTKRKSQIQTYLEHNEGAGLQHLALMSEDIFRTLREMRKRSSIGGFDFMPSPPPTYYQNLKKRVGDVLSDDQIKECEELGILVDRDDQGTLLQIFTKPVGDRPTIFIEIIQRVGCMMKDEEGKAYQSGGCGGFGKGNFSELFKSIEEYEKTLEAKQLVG
T4 sequence (P93836 whole entry M335N): as the sequence (P93836 whole entry L385V) above, with M335N, V385L counted along it
T5 sequence (P93836 whole entry I393L): as the sequence (P93836 whole entry L385V) above, with V385L, I393L counted along it
T2 sequence (P93836 whole entry M335Q): as the sequence (P93836 whole entry L385V) above, with M335Q, V385L counted along it
T1 sequence (P93836 whole entry P336A/E363Q): as the sequence (P93836 whole entry L385V) above, with P336A, E363Q, V385L counted along it

| SMILES | Ki [1] [nM] | Ki [2] [nM] | Ki [3] [nM] | Ki [4] [nM] | Ki [5] [nM] | Growth inihibition [%] C. reinhardtii (CC-503) (C. reinhardtii (CC-503); c 1 * 10^−4 M) [%] | Growth inihibition [%] C. reinhardtii (CC-503) + Homogentisic acid (C. reinhardtii (CC-503); c 1 * 10^−4 M) [%] | Growth inihibition [%] C. reinhardtii (CC-503) (C. reinhardtii (CC-503); c 5 * 10^−4 M) [%] | Growth inihibition [%] C. reinhardtii (CC-503) + Homogentisic acid (C. reinhardtii (CC-503); c 5 * 10^−4 M) [%] |
| --- | --- | --- | --- | --- | --- | --- | --- | --- | --- |
| CC1=NOC(c2c(Cl)ccc(C3=C(O)c4ncccc4N(CC(F)F)S3(=O)=O)c2Cl)C1 (stereo not drawn) [Inhibitor 1, 3-[2,4-dichloro-3-(3-methyl-4,5-dihydroisoxazol-5-yl)phenyl]-1-(2,2-difluoroethyl)-2,2-dioxo-pyrido[3,2-c]thiazin-4-ol] | 13 | 24 | 19 | 20 | 21 | – | – | – | – |
| Cc1c(C(=O)c2cnn(C)c2O)ccc(S(C)(=O)=O)c1C1=NOCC1 [Topramezone, reference compound] | – | – | – | – | – | 100 | 80 | 100 | 100 |
